Values quoted from earlier work as cited in patent US20090196889A1, “CONTROLLED ABSORPTION OF STATINS IN THE INTESTINE” (DEXCEL PHARMA TECHNOLOGIES LTD., priority 2004, published 2009).

Tests used:
HMG-CoA reductase = target: T1, HMG-CoA reductase (Homo sapiens, UniProt P04035); conditions: relative to the beta-hydroxy acid form considered as the drug
T1 sequence (P04035 1-888): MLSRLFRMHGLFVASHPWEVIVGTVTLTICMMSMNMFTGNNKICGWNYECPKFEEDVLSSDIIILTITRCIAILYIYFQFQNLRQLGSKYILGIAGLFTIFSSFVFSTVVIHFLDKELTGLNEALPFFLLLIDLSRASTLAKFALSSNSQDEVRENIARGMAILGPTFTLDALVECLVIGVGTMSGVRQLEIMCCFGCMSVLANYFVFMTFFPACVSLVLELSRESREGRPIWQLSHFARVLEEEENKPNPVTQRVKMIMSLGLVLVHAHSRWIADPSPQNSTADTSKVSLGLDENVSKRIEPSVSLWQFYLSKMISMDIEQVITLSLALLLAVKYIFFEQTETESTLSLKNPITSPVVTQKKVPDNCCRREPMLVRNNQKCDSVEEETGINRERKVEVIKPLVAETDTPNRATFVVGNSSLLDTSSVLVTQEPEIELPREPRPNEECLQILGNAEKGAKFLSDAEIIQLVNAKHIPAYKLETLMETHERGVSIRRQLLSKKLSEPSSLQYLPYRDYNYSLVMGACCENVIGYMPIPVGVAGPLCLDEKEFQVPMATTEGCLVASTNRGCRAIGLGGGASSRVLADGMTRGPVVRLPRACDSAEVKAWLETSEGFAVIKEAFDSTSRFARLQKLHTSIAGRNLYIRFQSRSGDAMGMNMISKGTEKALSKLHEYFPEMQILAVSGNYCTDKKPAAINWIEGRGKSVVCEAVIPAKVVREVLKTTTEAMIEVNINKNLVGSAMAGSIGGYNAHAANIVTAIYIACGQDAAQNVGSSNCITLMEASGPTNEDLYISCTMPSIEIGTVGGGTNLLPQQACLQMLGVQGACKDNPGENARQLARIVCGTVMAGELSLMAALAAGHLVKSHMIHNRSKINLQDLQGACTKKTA

[1] = test system: plasma proteins, primarily albumin; conditions: simvastatin and its active acid forms

| HMG-CoA reductase activity retained (HMG-CoA reductase) | bound to plasma proteins, primarily to albumin [1] | Compound |
| --- | --- | --- |
| ~50% | – | CCC(C)(C)C(=O)OC1CC(C)(O)C=C2C=CC(C)C(CCC3CC(O)CC(=O)O3)C21 (stereo not drawn) [6-beta-hydroxy simvastatin] |
| approximately 40% | – | CCC(C)(C)C(=O)OC1CC(CO)C=C2C=CC(C)C(CCC3CC(O)CC(=O)O3)C21 (stereo not drawn) [6-beta-hydroxymethyl] |
| – | more than 95% | CCC(C)(C)C(=O)O[C@H]1C[C@@H](C)C=C2C=C[C@H](C)[C@H](CC[C@@H]3C[C@@H](O)CC(=O)O3)[C@H]21 [simvastatin] |
